This note sets out measurements from patent US20230109839A1, “THERAPEUTIC AGENT FOR TAUOPATHIES” (SUMITOMO PHARMA CO., LTD., priority 2020, published 2023).

Experiment [1] relates to APP-Tg mouse. The experiment is described as follows: Evaluation of the cognitive function by novel object recognition test (NORT) in APP-Tg mice (Test 3). The experiment is classed as in vivo. Also noted: key to Discrimination index: (novel − known search time)/(novel + known search time). The conditions noted are these: for improvement of cognitive function (NORT), summary of the above results / improvement of cognitive function (NORT): APP-Tg mice; for improvement of cognitive function (NORT), summary of the above results: alone, with Elacridar or with ABT depending on the compound. The protocol:
Test 3: Evaluation of the Cognitive Function by Novel Object Recognition Test (Hereinafter, Also Referred to as “NORT”)
The present test is for evaluating the improvement of cognitive function with the test compounds. When an APP-Tg mouse which is an AD (Alzheimer's disease) model mouse is evaluated by NORT, the memory for a familiar object decreases depending on the time interval between the first trial run (training) and the second trial run (test). For example, if the first trial run is done and 3 hours later the second one is done, there is no difference in the searching times between novel object and known object for the APP-Tg mouse, compared with a healthy mouse. Thus, the APP-Tg mouse suffers from significant amnesia.
The APP-Tg mouse used herein was prepared by constructing an expression cassette linked to human APP751 isoform to which Swedish (K670N/M671L) and Indiana (V717F) mutation were introduced at downstream of mouse Thy-1 promoter, then injecting the expression cassette into a mouse fertilized egg, and transplanting it to a host mouse. The prepared mouse presents with intracerebral AB accumulation and cognitive dysfunction from early on, and thus the mouse can be used for the evaluation of cognitive function. APP-Tg mouse has been also reported in Non-patent literature 6.
To the prepared APP-Tg mouse, the test compound was administered, and then the first trial run was done for the mouse 30 minutes after the intraperitoneal administration or after 10 days of mixed diet administration. The second trial run was done 3 hours after the first trial run, and the searching times between novel object and known object in the second trial were evaluated. The discrimination index was calculated from the searching time for novel object and known object in the second trial run, and the improvement of cognitive function of the test compound was confirmed by comparing the discrimination index with the test compound-unadministered group as an index of the cognitive function. The discrimination index was calculated by the following formula.
Discrimination index={(Searching time for novel object)−(Searching time for known object)}/{(Searching time for novel object)+(Searching time for known object)}
The present test can be also done with a combination with Elacridar (Tokyo Chemical Industry Co., Ltd.). Elacridar can inhibit P-gp and BCRP which are excretion transporters expressed in the blood-brain barrier and thereby Elacridar has the effect of improving the transferability of the test compound to the brain. Eracridal was orally administered to APP-Tg mice at 100 mg/kg 2 hours before the first trial run, and then the test compound was intraperitoneally administered to the mice 30 minutes before the first trial run according to the above method. And, the improvement of cognitive function was evaluated. The significant difference from the vehicle-administered group was determined using the parametric Dunnett multiple comparison test.
And, the present test can be also done with a combination with ABT (1-aminobenzotriazole) (Tokyo Chemical Industry Co., Ltd.). ABT has the effect of improving the blood concentration of the test compound by inhibiting CYP and suppressing metabolism. The test compound and ABT (1 mg/g-food) were administered with food to APP-Tg mice for 10 days, and then the improvement of cognitive function was evaluated according to the above method. The significant difference from the vehicle-administered group was determined using the parametric Dunnett multiple comparison test.

Experiment [2] relates to intracerebral tau aggregate accumulation. The experiment is described as follows: Intracerebral tau aggregate accumulation in rTg4510 mice, tau PET with [18F] PM-PBB3, SUVR (Test 5). The experiment is classed as in vivo, mouse. The text has this:
Test 5: Evaluation of Intracerebral Tau Aggregate Accumulation and Cerebral Atrophy Using rTg4510 Mice
This test is a test to evaluate the effects of the compounds on intracerebral tau aggregate accumulation and cerebral atrophy. The rTg4510 mice overexpress the human-type FTDP-17 mutant tau in the forebrain, and month-age-dependent intracerebral tau aggregate accumulation and cerebral atrophy are observed. The rTg4510 mice used herein were produced by mating Tg (tauP301L) 4510 mice (Stock No. 015815) and CaMKII-tTA mice (Stock No. 007004) purchased from The Jackson Laboratory and breeding them.
The test compound was administered as a mixed diet to rTg4510 mice from the age of 4 months, and PET scan and MRI were performed at the ages of 4, 6 and 8 months to quantitatively evaluate the amount of the intracerebral tau aggregate accumulated and cerebral atrophy. The PET scan was performed using MicroPET Focus 220 of Siemens Medical Solutions (0.851 mm thick (intercenter) 95 slices, 19.0 cm axial field of view (FOV), and 7.6 cm intra-section FOV). The administration of radioactive compound [^18F] PM-PBB3 (precursor obtained from Aprinoia) and the PET scan were performed in dimly lit after the mice was treated with 1.5% isoflurane anesthesia to avoid […] of the radioactive compound. The emission scan was performed for 60 minutes immediately after the intravenous administration of [^18F] PM-PBB3 (1 mCi) (3D list mode, energy window: 350-750 keV). Then, the list mode data sorted into 3D synograms were converted into 2D synograms by Fourier-rebinding (frames: 4×1, 8×2 and 8×5 minutes). The dynamic image for 60 minutes after the administration of [^18F] PM-PBB3 was reconstructed by a filter-corrected back projection with a 0.5 mm Hanning filter. Regions of interest (ROI) were set in multiple brain regions using PMOD image analysis software (PMOD Technology) with reference to the MRI templates and the PET reconstructed images. Tau aggregate accumulation was evaluated by calculating SUVR (Standardized uptake value ratio) with the cerebellum as a reference region, based on the added average of dynamic images from 40 minutes to 60 minutes.

[3] abbreviates: 4 month old, 5.8 mg/g-food from the age of 4 months.
Setting [4] is: 6 month old, 5.8 mg/g-food from the age of 4 months.
[5] abbreviates: 8 month old, 5.8 mg/g-food from the age of 4 months.
[6] abbreviates: 4 month old, 3 mg/g-food, with ABT 1 mg/g-food.
Where [7] appears, read: 6 month old, 3 mg/g-food, with ABT 1 mg/g-food.
Where [8] appears, read: 8 month old, 3 mg/g-food, with ABT 1 mg/g-food.

“Also recorded” adds a separate entry of the source.

As for `CC1CCN(c2ccc(=O)n(CC(=O)Nc3ccc(C#N)cc3)n2)CC1` [Example 1, N-(4-Cyanophenyl)-2-[3-(4-methylpiperidin-1-yl)-6-oxopyridazin-1(6H)-yl]acetamide], the “improvement of cognitive function (NORT), summary of the above results” value (“improvement … of the above results” below) in experiment [1] is “some improvement of cognitive function”. In addition, the Discrimination index is 0.25 in experiment [1] (APP-Tg mouse, 30 minutes before first trial run); 0.12 in experiment [1] (APP-Tg mouse, dose 3 (mg/g i.p.), 30 minutes before first trial run); 0.22 in experiment [1] (APP-Tg mouse, dose 10 (mg/g i.p.), 30 minutes before first trial run). Besides, in experiment [1] (APP-Tg mouse, intraperitoneal doses of 10 and 30 mg/kg, parametric Dunnett multiple comparison test), the “improvement of cognitive function, significant difference from the vehicle-administered group” value was “statistically significant”. For the same molecule, the “improvement of cognitive function (NORT, discrimination index)” value in experiment [1] (APP-Tg mouse, intraperitoneally 3, 10 and 30 mg/kg 30 minutes before the first trial run) is on record as “dose-dependent improvement of cognitive function”. Moreover, the “SUVR(cerebellum ratio) cerebral neocortex” value was 0.986 ± 0.009 in experiment [2] (setting [3]), 1.098 ± 0.013 in experiment [2] (setting [4]) and 1.184 ± 0.017 in experiment [2] (setting [5]). For the same molecule, the “SUVR(cerebellum ratio) hippocampus” value in experiment [2] (setting [3]) was found to be 1.078 ± 0.009; in experiment [2] (setting [4]), 1.182 ± 0.016; in experiment [2] (setting [5]), 1.284 ± 0.024. Further, in experiment [2] (diet 5.8 mg/g-food from the age of 4 months), the “age-dependent increase in SUVR in the cerebral neocortex and hippocampus (FIG. 3)” value is on record as “statistically significantly suppressed”. Besides, the “increase in tau PET tracer accumulation in each region with aging (SUVR average images, FIG. 1)” value in experiment [2] (diet 5.8 mg/g-food from the age of 4 months, ages 4, 6 and 8 months, vs non-administration group) is recorded as “significantly suppressed”.
Consider `CN(c1ncc2cnn(CC(=O)Nc3ccn4ncnc4c3)c2n1)C1CCCC1` [Example 795, 2-{6-[cyclopentyl(methyl)amino]-1H-pyrazolo[3,4-d]pyrimidin-1-yl}-N-([1,2,4]triazolo[1,5-a]pyridin-7-yl)acetamide], for which, in experiment [1], the “improvement … of the above results” value was “some improvement of cognitive function”. Further, the “improvement of cognitive function (NORT)” value in experiment [1] (test compound and ABT (1 mg/g-food) administered with food for 10 days) is reported as “some improvement of cognitive function”. The Discrimination index in experiment [1] (APP-Tg mouse, dose 0.2 mg/g-food for 10 days, with ABT 1 mg/g-food) came to 0.30; in experiment [1] (APP-Tg mouse, dose 2 mg/g-food for 10 days, with ABT 1 mg/g-food), 0.27. Moreover, the “SUVR(cerebellum ratio) cerebral neocortex” value in experiment [2] (setting [6]) is 1.023 ± 0.009; in experiment [2] (setting [7]), 1.149 ± 0.031; in experiment [2] (setting [8]) it was 1.268 ± 0.036. For the same molecule, the entries for the “SUVR(cerebellum ratio) hippocampus” value in experiment [2] (setting [6]), in experiment [2] (setting [7]) and in experiment [2] (setting [8]) were 1.134 ± 0.042, 1.308 ± 0.044 and 1.419 ± 0.048, respectively. For the same molecule, the “age-dependent increase in SUVR in the cerebral neocortex and hippocampus (FIG. 5)” value in experiment [2] (mixed diet 3 mg/g-food with ABT 1 mg/g-food) is “tended to be suppressed”. Moreover, the “increase in PET tracer accumulation in each brain region with aging (average SUVR images, FIG. 4)” value in experiment [2] (mixed diet 3 mg/g-food with ABT 1 mg/g-food, ages 4, 6 and 8 months) was “suppressed”.
For `CC1CC=C(c2cnc3cnn(CC(=O)Nc4ccn5ncnc5c4)c3n2)CC1` (stereo not drawn) [Example 577, 2-[6-(4-methylcyclohex-1-en-1-yl)-1H-pyrazolo[3,4-b]pyrazin-1-yl]-N-([1,2,4]triazolo[1,5-a]pyridin-7-yl)acetamide], in experiment [1] (Elacridar orally 100 mg/kg 2 hours before, test compound intraperitoneally 30 minutes before the first trial run, 100 mg/kg), the “improvement of cognitive function (NORT)” value is recorded as “some improvement of cognitive function; also recorded: strong improvement of cognitive function”. The “improvement … of the above results” value in experiment [1] is “some improvement of cognitive function”. Moreover, the Discrimination index in experiment [1] (APP-Tg mouse, dose 10 (mg/g i.p.), with Elacridar 100 mg/kg orally 2 hours before first trial run) is given as 0.13; in experiment [1] (APP-Tg mouse, with Elacridar 100 mg/kg orally 2 hours before first trial run), 0.21. Besides, the figures for the “individuals that did not show any increase in the SUVR from the age of 6 months to the age of 8 months” value in experiment [2] (mixed diet 0.7 mg/g-hood administration group) and in experiment [2] (mixed diet 6.6 mg/g-hood administration group) were 3 out of 5 and 3 out of 6, respectively. In experiment [2] (mixed diet 0.7 and 6.6 mg/g-food), the “accumulation of tau aggregates (suggested from SUVR)” value was “suppressed”.
